Results on 16 compounds are retold here after patent publication US20120184542A1, “PYRIDO PYRIMIDINES” (priority 2011, published 2012).

Structures can show the parent of a compound that is named as a salt. Where two headings read alike, the source gives them in different places.

For test [1], the target named is T1, Human DYRK1B (Homo sapiens, UniProt Q9Y463).
T1 construct: purchased Invitrogen PR8350B (former PV4649)
Nature of the test: DYRK1B Kinase TR-FRET (IMAP-Tb) Assay. The format is biochemical. The conditions noted are these: TR-FRET (IMAP-Tb); ATP 70 μM; 37° C. 60 minutes; read-out: Enzyme IC50 (μM) DYRK1B. (In TR-FRET formats the signal depends on donor and acceptor labels being close together.)

Test [2] addresses T2, Human DYRK1A (Homo sapiens, UniProt Q13627).
T2 construct: purchased Invitrogen PV3997
Nature of the test: DYRK1A Kinase TR-FRET (IMAP-Tb) Assay. Format: biochemical. The conditions noted are these: TR-FRET (IMAP-Tb); ATP 70 μM; 37° C. 60 minutes; read-out: Enzyme IC50 (μM) DYRK1A. The essentials: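 Recombinant human DYRK1A phosphorylated fluorescent substrate peptide (1.0 μM) with ATP in 10 mM HEPES pH 7.0, 50 mM NaCl, 5 mM MgCl2, 1 mM DTT, 1 mM NaVO4, 0.02% BSA for 60 min at 37 °C. Phosphopeptide detected by IMAP terbium TR-FRET; IC50 reported.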

Test [3] has as its system SW620 human colon cancer cells. Nature of the test: SW620 Cell Viability Assay. Format: cell-based. The conditions noted are these: CellTiter-Glo, 4 days incubation, read-out: Cellular EC50 (μM) SW620. As for the experimental part:
Some cells (S—) were allowed to attach for 24 hrs, serum starved for 48 hrs, and then followed with drug treatments Test Compound Solutions were Prepared in Regular Corresponding Media Supplemented with Serum 2. […] Viability Assay: This assay was performed as follows: • Transfer 50 μL of test compound solution per well from the test compound plate onto the cell plate prepared in Step #1. • Mix the plate with treated cells by pipetting up and down three times with 200 μL multi-channel pipette. • Incubate the cells in 5% CO2 incubator @ 37° C. for 4 days. • Run the CellTiter-Glo™ Luminescent Cell Viability Assay.
(ATP-based viability assays read luminescence as a measure of living cells.)

T1 sequence (Q9Y463 whole entry): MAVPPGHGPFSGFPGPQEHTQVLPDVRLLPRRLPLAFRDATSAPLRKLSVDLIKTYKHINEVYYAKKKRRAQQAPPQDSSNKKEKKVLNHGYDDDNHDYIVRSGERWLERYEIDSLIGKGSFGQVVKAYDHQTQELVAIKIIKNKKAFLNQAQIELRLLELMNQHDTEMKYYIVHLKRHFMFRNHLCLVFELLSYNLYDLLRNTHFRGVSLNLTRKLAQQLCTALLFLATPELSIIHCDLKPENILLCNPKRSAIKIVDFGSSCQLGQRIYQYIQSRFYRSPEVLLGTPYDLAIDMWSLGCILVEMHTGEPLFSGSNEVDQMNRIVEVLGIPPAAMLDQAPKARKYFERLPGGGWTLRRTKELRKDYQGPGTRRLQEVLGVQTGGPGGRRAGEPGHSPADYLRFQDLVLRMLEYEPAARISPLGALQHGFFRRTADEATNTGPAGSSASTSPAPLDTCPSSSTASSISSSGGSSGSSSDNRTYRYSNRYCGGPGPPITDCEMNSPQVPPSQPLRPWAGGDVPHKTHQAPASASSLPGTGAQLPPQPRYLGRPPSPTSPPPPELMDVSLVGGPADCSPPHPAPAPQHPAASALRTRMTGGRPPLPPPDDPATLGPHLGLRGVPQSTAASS

Regarding `CN1CCN(CCNc2ncc3cc(C(=O)Nc4cc(C(=O)NCc5cccc(Cl)c5)ccc4Cl)c(=O)[nH]c3n2)CC1` [Example 99, 2-[2-(4-Methyl-piperazin-1-yl)-ethylamino]-7-oxo-7,8-dihydro-pyrido[2,3-d]pyrimidine-6-carboxylic acid [2-chloro-5-(3-chloro-benzylcarbamoyl)-phenyl]amide], the 50% inhibitory concentration (IC50) (as a rule, the point on the concentration scale where inhibition reaches its midpoint) worked out at 0.0347 µM in test [1] and 0.0202 µM in test [2]. The EC50 (usually the midpoint of the concentration-response curve) in test [3] was 0.0276 µM.

On to `CSc1ncc2cc(C(=O)Nc3cc(C(=O)NC(CCO)c4ccccc4)ccc3Cl)c(=O)[nH]c2n1` (stereo not drawn) [Example 141, N-(2-Chloro-5-(3-hydroxy-1-phenylpropylcarbamoyl)phenyl)-2-(methylthio)-7-oxo-7,8-dihydropyrido[2,3-d]pyrimidine-6-carboxamide], for which the half-inhibitory concentration (IC50) in test [1] was 0.12 µM; in test [2], 0.101 µM. Besides, the EC50 in test [3] (Homo sapiens, SW-620, 96 h) turned out to be 2.39 µM.

With `O=C(NCc1cccc(Cl)c1)c1ccc(Cl)c(NC(=O)c2cc3cnc(NCCN4CCCC4)nc3[nH]c2=O)c1` [Example 89, 7-Oxo-2-(2-pyrrolidin-1-yl-ethylamino)-7,8-dihydro-pyrido[2,3-d]pyrimidine-6-carboxylic acid [2-chloro-5-(3-chloro-benzylcarbamoyl)-phenyl]amide], the IC50 is 0.023 µM in test [1] and 0.0189 µM in test [2]. In addition, in test [3] (Homo sapiens, SW-620, 96 h), the EC50 came out at 0.192 µM.

In the case of `O=C(NCc1cccc(Cl)c1)c1ccc(Cl)c(NC(=O)c2cc3cnc(N4C[C@H]5CC[C@@H](C4)O5)nc3[nH]c2=O)c1` [Example 179, 2-(1R,5S)-8-Oxa-3-aza-bicyclo [3.2.1]oct-3-yl-7-oxo-7,8-dihydro-pyrido[2,3-d]pyrimidine-6-carboxylic acid [2-chloro-5-(3-chloro-benzylcarbamoyl)-phenyl]amide], the results for the half-maximal inhibitory concentration (IC50) in test [1] and in test [2] were 0.131 µM and 0.0369 µM, respectively. Further, the 50% effective concentration (EC50) in test [3] (Homo sapiens, SW-620, 96 h) amounted to 0.367 µM.

`Cc1ncc2cc(C(=O)Nc3cc(C(=O)NC(CN)c4ccccc4)ccc3Cl)c(=O)[nH]c2n1` (stereo not drawn) [Example 114, N-(5-(2-Amino-1-phenylethylcarbamoyl)-2-chlorophenyl)-2-methyl-7-oxo-7,8-dihydropyrido[2,3-d]pyrimidine-6-carboxamide hydrochloride]: the concentration for half-maximal inhibition (IC50) in test [1] worked out at 0.0146 µM; in test [2] it was 0.0373 µM. Further, in test [3] (Homo sapiens, SW-620, 96 h), the half-maximal effective concentration (EC50) turned out to be 1.32 µM.

Regarding `NC1CCN(c2ncc3cc(C(=O)Nc4cc(C(=O)NCc5cccc(Cl)c5)ccc4Cl)c(=O)[nH]c3n2)CC1` [Example 97, 2-(4-Amino-piperidin-1-yl)-7-oxo-7,8-dihydro-pyrido[2,3-d]pyrimidine-6-carboxylic acid [2-chloro-5-(3-chloro-benzylcarbamoyl)-phenyl]-amide], the half-maximal inhibitory concentration (IC50) came out at 0.0819 µM in test [1] and 0.0448 µM in test [2]. Besides, in test [3] (Homo sapiens, SW-620, 96 h), the concentration for a half-maximal effect (EC50) is 0.0662 µM.

Turning to `NC1CCN(c2ncc3cc(C(=O)Nc4cc(C(=O)NC(CCO)c5ccccc5)ccc4Cl)c(=O)[nH]c3n2)CC1` (stereo not drawn) [Example 148, 2-(4-Aminopiperidin-1-yl)-N-(2-chloro-5-(3-hydroxy-1-phenylpropylcarbamoyl)phenyl)-7-oxo-7,8-dihydropyrido[2,3-d]pyrimidine-6-carboxamide hydrochloride], the figures for the IC50 in test [1] and in test [2] were 0.321 µM and 0.15 µM, respectively. For the same compound, in test [3] (Homo sapiens, SW-620, 96 h), the EC50 is 0.069 µM.

As to `COC(=O)c1ccc(Cl)c(NC(=O)c2cc3cnc(N4CCN(C)CC4)nc3[nH]c2=O)c1` [Example 35, 4-Chloro-3-{[2-(4-methyl-piperazin-1-yl)-7-oxo-7,8-dihydro-pyrido[2,3-d]pyrimidine-6-carbonyl]amino}-benzoic acid methyl ester], the half-inhibitory concentration (IC50) in test [1] worked out at 0.031 µM; in test [2], 0.0046 µM. Moreover, in test [3] (Homo sapiens, SW-620, 96 h), the half-maximal effective concentration (EC50) was 7.05 µM.

In the case of `COc1ncc2cc(C(=O)Nc3cc(C(=O)N[C@H](CCO)c4ccccc4)ccc3Cl)c(=O)[nH]c2n1` [Example 158, (R)—N-(2-Chloro-5-(3-hydroxy-1-phenylpropylcarbamoyl)phenyl)-2-methoxy-7-oxo-7,8-dihydropyrido[2,3-d]pyrimidine-6-carboxamide], the IC50 worked out at 0.082 µM in test [1] and 0.037 µM in test [2]. In test [3] (Homo sapiens, SW-620, 96 h), the EC50 was 1.71 µM.

For the compound `CN1CCN(c2ncc3cc(C(=O)Nc4cc(C(=O)NCc5ccccc5)ccc4Cl)c(=O)[nH]c3n2)CC1` [Example 172, 2-(4-Methyl-piperazin-1-yl)-7-oxo-7,8-dihydro-pyrido[2,3-d]pyrimidine-6-carboxylic acid (5-benzylcarbamoyl-2-chloro-phenyl)-amide], the results for the IC50 in test [1] and in test [2] were 0.208 µM and 0.109 µM, respectively. In addition, in test [3] (Homo sapiens, SW-620, 96 h), the concentration giving a half-maximal response (EC50) came out at 0.49 µM.

Consider `NC1CCN(c2ncc3cc(C(=O)Nc4cc(C(=O)NC(CO)c5ccccc5)ccc4Cl)c(=O)[nH]c3n2)CC1` (stereo not drawn) [Example 147, 2-(4-Aminopiperidin-1-yl)-N-(2-chloro-5-(2-hydroxy-1-phenylethylcarbamoyl)phenyl)-7-oxo-7,8-dihydropyrido[2,3-d]pyrimidine-6-carboxamide hydrochloride], for which the 50% inhibitory concentration (IC50) in test [1] was found to be 0.483 µM; in test [2] it was 0.194 µM. For the same compound, the EC50 in test [3] (Homo sapiens, SW-620, 96 h) stood at 1.44 µM.

Turning to `O=C(NC(CO)c1ccccc1)c1ccc(Cl)c(NC(=O)c2cc3cnc(N4C[C@H]5CC[C@@H](C4)O5)nc3[nH]c2=O)c1` (stereo partly drawn) [Example 181, 2-(1R,5S)-8-Oxa-3-aza-bicyclo [3.2.1]oct-3-yl-7-oxo-7,8-dihydro-pyrido[2,3-d]pyrimidine-6-carboxylic acid [2-chloro-5-(2-hydroxy-1-phenyl-ethylcarbamoyl)-phenyl]amide], the results for the concentration for half-maximal inhibition (IC50) in test [1] and in test [2] were 0.148 µM and 0.063 µM, respectively. Further, the 50% effective concentration (EC50) in test [3] (Homo sapiens, SW-620, 96 h) turned out to be 1.88 µM.

`CSc1ncc2cc(C(=O)Nc3cc(C(=O)NC(CO)c4ccccc4)ccc3Cl)c(=O)[nH]c2n1` (stereo not drawn) [Example 140, N-(2-Chloro-5-(2-hydroxy-1-phenylethylcarbamoyl)phenyl)-2-(methylthio)-7-oxo-7,8-dihydropyrido[2,3-d]pyrimidine-6-carboxamide]: the IC50 in test [1] was 0.17 µM; in test [2] it was 0.073 µM. The EC50 in test [3] (Homo sapiens, SW-620, 96 h) came to 3.07 µM.

For the compound `COc1ncc2cc(C(=O)Nc3cc(C(=O)NC(CN)c4cccc(Cl)c4)ccc3Cl)c(=O)[nH]c2n1` (stereo not drawn) [Example 85, 2-Methoxy-7-oxo-7,8-dihydro-pyrido[2,3-d]pyrimidine-6-carboxylic acid {5-[2-amino-1-(3-chloro-phenyl)-ethylcarbamoyl]-2-chloro-phenyl}-amide], the 50% inhibitory concentration (IC50) in test [1] turned out to be 0.029 µM; in test [2], 0.03 µM. In test [3] (Homo sapiens, SW-620, 96 h), the EC50 turned out to be 0.524 µM.

`NCC(NC(=O)c1ccc(Cl)c(NC(=O)c2cc3cnc(N4CCC(N)CC4)nc3[nH]c2=O)c1)c1ccccc1` (stereo not drawn) [Example 138, N-(5-(2-Amino-1-phenylethylcarbamoyl)-2-chlorophenyl)-2-(4-aminopiperidin-1-yl)-7-oxo-7,8-dihydropyrido[2,3-d]pyrimidine-6-carboxamide hydrochloride]: the half-maximal inhibitory concentration (IC50) is 0.0319 µM in test [1] and 0.0184 µM in test [2]. In addition, in test [3] (Homo sapiens, SW-620, 96 h), the EC50 was found to be 2.9 µM.

As for `COc1nc(C)c2cc(C(=O)Nc3cc(C(=O)NC(CN)c4ccccc4)ccc3Cl)c(=O)[nH]c2n1` (stereo not drawn) [Example 170, N-(5-(2-Amino-1-phenylethylcarbamoyl)-2-chlorophenyl)-2-methoxy-4-methyl-7-oxo-7,8-dihydropyrido[2,3-d]pyrimidine-6-carboxamide 2,2,2-trifluoroacetate], the values for the half-maximal inhibitory concentration (IC50) in test [1] and in test [2] were 0.117 µM and 0.0164 µM, respectively. For the same compound, the concentration for a half-maximal effect (EC50) in test [3] (Homo sapiens, SW-620, 96 h) worked out at 3.21 µM.
